Patent US20190133979A1, “METHOD FOR ENHANCING DELIVERY OF THERAPEUTIC DRUGS TO TREATMENT SITES” (Chang Gung University, priority 2013, published 2019)
Entries after “also recorded” stand apart in the source; their conditions may differ.

How the values were obtained:
[1] = system: HeLa cells; test: Determination of cell-associated MNPs (MNPcell) in HeLa cells; assay type: cell-based, human; settings: for increase of MNPcell: 10 μM; for effect on cell-associated MNPs (MNPcell), in words: with or without magnetic field
Description: (§1) LN229 cells, human glioma cells, were cultured in DMEM medium; whereas HeLa cells, human cervical cancer cells, were cultured in MEM medium. Both media were supplemented with 10% fetal bovine serum (FBS) and 1% penicillin/streptomycin/amphotericin B solution. The cells were maintained in a 37° C. incubator supplied with 5% CO2 and sub-cultured every 3 to 4 days.
(§2) LN229 or HeLa cells were seeded and grown in 24-well plates. After attaining 80-90% confluence, the cells were exposed to MNPs (100 μg/mL) and phenolic compounds (10 or 30 μM) in the presence or absence of NdFeB magnet underneath the plate for 24 h. In some experiments, cells were equilibrated at 4° C. for 20 min, followed by an additional 2-h incubation with MNPs at 4° C. in the absence and presence of the magnet. A home-made magnetic plate with 24 pieces of cylindrical NdFeB magnet were used to provide a magnetic field of 3.4 kG at the center of each well. For the group without the magnet during incubation with MNPs, the magnetic plate was placed underneath the culture plates for 5 min after MNP administration to facilitate MNP sedimentation. The cells were then washed twice with phosphate-buffered saline (PBS) and trypsinized prior to colorimetric quantification. The cell pellet containing cell-associated MNPs (MNPcell) was treated with 10% hydrochloric acid at 55° C. for 4 h, followed by adding ammonium persulfate (1 mg/mL) and potassium thiocyanate solution (1 M). The amount of cell-associated iron was determined with VICTOR3 Multilabel Plate Reader (PerkinElmer, Waltham, Mass.) at OD490. A calibration curve was prepared under identical conditions.

[2] = system: LN229 cells; test: Determination of cell-associated MNPs (MNPcell) in LN229 cells; assay type: cell-based, human; settings: for increase of MNPcell / enhancement of MNPcell at 4° C.: LN229 cells; for enhancement of MNPcell at 4° C.: 30 μM, 2 h; for effect on cell-associated MNPs (MNPcell), in words: LN-229 cells, with or without magnetic field; for effect on uptake of MNPs, in words: MNPs 100 μg/mL, 10 or 30 μM, 24 hrs, vs vehicle; for increase of cellular uptake of MNP: vs without compound; for concentration as low as which cellular uptake of MNPs is significantly increased / capability of enhancing cellular uptake of MNPs, in words: FIG. 4; for capability of enhancing cellular uptake of MNPs, in words: LN-299 [sic] cells
Description: as §1
as §2, with “After attaining 80-90% confluence, the cells were exposed to MNPs (100 μg/mL) and phenolic compounds (10 or 30 μM) in the presence or absence of NdFeB magnet underneath the plate for 24 h.” left out

[3] = system: LN229 cells; test: Confocal microscopy of fluorescent CMX-MNP internalization; assay type: cell-based, human
Description: LN229 cells were seeded onto poly-lysine coated coverslips 18 h before experiments. The cells were incubated with green fluorescent MNPs with carboxylmethyl-dextran coating (nano-screenMAG-CMX; 100 μg/mL) and methyl gallate (30 μM) at 37° C. for 2 h in the presence of NdFeB magnet underneath the culture plate. Cells were then washed twice with PBS and then incubated with Lysotracker® (0.125 μM) for 30 min for staining of lysosomes. The cells were than washed with PBS and fixed with 4% paraformaldehyde for 20 min at room temperature. The cells were counterstained with DAPI and imaged with a Zeiss LSM 510 Meta laser confocal microscope system equipped with a 100×/1.4 oil immersion objective lens. Image processing and analysis of fluorescent MNPs colocalized with cells was performed using Fiji Image J.

[4] = system: tumor cells; test: Timing of EGCG and MNP addition, MNPcell in 5 study groups; assay type: cell-based
Description: as §2
In this example, the timing for adding the present polyphenolic compound with MNPs to the tumor cells was investigated. To this purpose, 5 study groups were designed and respectively treated with the designated compounds, then the MNPcell in each group was determined. The concentrations of MNPs and epigallocatechin gallate (EGCG) or compound 12 used in this example were respectively 100 μg/mL and 10 μM. In Group I (the control group), cells were treated with MNPs (2 hrs). In Group 2, cells were first treated with EGCG (2 hrs), which was removed, and then with MNPs (2 hrs). In Group 3, cells were simultaneously treated with EGCG and MNPs for 2 hours. In Group 4, cells were first treated with EGCG (2 hrs), then with the combination of MNP and EGCG (2 hrs). […]

[5] = 10 μM, magnetic field-free environment

## O.O=C(O)c1cc(O)c(O)c(O)c1 [Compound 1, Gallic acid monohydrate]
[1]; absence of the magnet
  increase of MNPcell: 1.8 fold
[1]; presence of the magnet
  increase of MNPcell: 1.9 fold
[1]
  effect on cell-associated MNPs (MNPcell), in words: concentration-dependent increase
[2]; 50 μM, absence of the magnet
  increase of MNPcell: 5.4 fold
[2]; 50 μM, presence of the magnet
  increase of MNPcell: 3.9 fold
[2]; with the magnet
  enhancement of MNPcell at 4° C.: 0.6 fold
[2]; without magnet
  enhancement of MNPcell at 4° C.: 1.9 fold
[2]
  effect on cell-associated MNPs (MNPcell), in words: concentration-dependent increase
[2]; absence of magnet
  effect on uptake of MNPs, in words: effective in enhancing the uptake of MNPs
[2]; presence of magnet
  effect on uptake of MNPs, in words: effective in enhancing the uptake of MNPs
[2]; compared to vehicle, with and without magnet
  concentration as low as which a significant increase in LN229 cell-associated MNPs is induced: 6 µM

## COC(=O)c1cc(O)c(O)c(O)c1 [Compound 2, Methyl Gallate]
[3]; 30 μM, 2 h, CMX-MNP 100 μg/mL, compared to vehicle control
  internalization of MNPs, in words: greatly increased internalization of MNPs
[3]; in the presence of methyl gallate (n=8), vehicle 0.51±0.08
  overlap coefficient, Mander's coefficient, of MNP relative to lysosomes: 0.65±0.03
[1]; absence of the magnet
  increase of MNPcell: 0.6 fold
[1]; presence of the magnet
  increase of MNPcell: 1.0 fold
[1]
  effect on cell-associated MNPs (MNPcell), in words: concentration-dependent increase
[2]; 10 μM, absence of the magnet
  increase of MNPcell: 1.4 fold
[2]; 10 μM, magnet underneath cells
  increase of MNPcell: 2.1 fold
[2]; 50 μM, absence of the magnet
  increase of MNPcell: 4.5 fold
[2]; 50 μM, presence of the magnet
  increase of MNPcell: 2.9 fold
[2]; with the magnet
  enhancement of MNPcell at 4° C.: 0.4 fold
[2]; without magnet
  enhancement of MNPcell at 4° C.: 1.4 fold
[2]; listed as Methyl gallate
  effect on cell-associated MNPs (MNPcell), in words: enhanced MNPcell in a concentration-dependent manner
[2]; listed as methyl gallate
  effect on cell-associated MNPs (MNPcell), in words: concentration-dependent increase
[2]; absence of magnet
  effect on uptake of MNPs, in words: effective in enhancing the uptake of MNPs
[2]; presence of magnet
  effect on uptake of MNPs, in words: effective in enhancing the uptake of MNPs

## CCCOC(=O)c1cc(O)c(O)c(O)c1 [Compound 3, Propyl Gallate]
[2]; absence of magnet
  effect on uptake of MNPs, in words: effective in enhancing the uptake of MNPs
[2]; presence of magnet
  effect on uptake of MNPs, in words: effective in enhancing the uptake of MNPs

## NC(=O)c1cc(O)c(O)c(O)c1 [Compound 4, 3,4,5-trihydroxybenzamide]
[2]; absence of magnet
  effect on uptake of MNPs, in words: effective in enhancing the uptake of MNPs
[2]; presence of magnet
  effect on uptake of MNPs, in words: effective in enhancing the uptake of MNPs

## O=C(O)c1ccc(O)c(O)c1 [Compound 5, protocatechuic acid]
[2]; presence of magnet
  effect on uptake of MNPs, in words: enhanced the uptake of MNPs in the presence of magnet

## O=C(O)c1ccc(O)cc1 [Compound 6, p-hydroxybenzoic acid]
[2]; absence of magnet
  effect on uptake of MNPs, in words: none of them was effective
[2]; presence of magnet
  effect on uptake of MNPs, in words: none of them was effective

## O=C(O)c1cc(O)cc(O)c1 [Compound 7, α-resorcylic acid]
[2]; absence of magnet
  effect on uptake of MNPs, in words: none of them was effective
[2]; presence of magnet
  effect on uptake of MNPs, in words: none of them was effective

## O=C(O)/C=C/c1ccc(O)c(O)c1 [Compound 9, caffeic acid]
[2]; presence of magnet
  effect on uptake of MNPs, in words: enhanced the uptake of MNPs in the presence of magnet

## O=C(O)CCc1ccc(O)c(O)c1 [Compound 10, Dihydrocaffeic Acid]
[2]; presence of magnet
  effect on uptake of MNPs, in words: enhanced the uptake of MNPs in the presence of magnet

## COc1cc(/C=C/C(=O)O)ccc1O [Compound 11, ferulic acid]
[2]; absence of magnet
  effect on uptake of MNPs, in words: none of them was effective
[2]; presence of magnet
  effect on uptake of MNPs, in words: none of them was effective

## O=C(O[C@@H]1Cc2c(O)cc(O)cc2O[C@@H]1c1cc(O)c(O)c(O)c1)c1cc(O)c(O)c(O)c1 [Compound 12, Epigallocatechin gallate]
[4]; Group 2: EGCG 10 μM 2 hrs, removed, then MNPs 100 μg/mL 2 hrs
  uptake of MNPs, in words: no enhanced uptake of MNPs was found
[4]; Group 3: EGCG 10 μM and MNPs 100 μg/mL simultaneously 2 hours, presence and absence of magnet
  uptake of MNPs, in words: enhanced uptake of MNPs was achieved
[4]; Groups 4 and 5: EGCG pre-treatment 2 or 4 hrs, then MNP and EGCG 2 hrs, vs Group 3
  uptake of MNPs, in words: did not result in further increase in the cellular uptake of MNPs
[2]; 10 μM, external magnetic field
  increase of cellular uptake of MNP: 16 times
[2]; [5]
  increase of cellular uptake of MNP: 5.7 times
[2]
  concentration as low as which cellular uptake of MNPs is significantly increased: 3 µM
[2]; listed as EGCG
  capability of enhancing cellular uptake of MNPs, in words: possessed the capability of enhancing cellular uptake of MNPs; also recorded: enhanced cellular uptake of MNPs

## O=C(O[C@@H]1Cc2c(O)cc(O)cc2O[C@@H]1c1ccc(O)c(O)c1)c1cc(O)c(O)c(O)c1 [Compound 13, Epicatechin gallate]
[2]; 10 μM, external magnetic field
  increase of cellular uptake of MNP: 5-6 times
[2]; [5]
  increase of cellular uptake of MNP: 12 times
[2]
  concentration as low as which cellular uptake of MNPs is significantly increased: 3 µM
[2]; listed as ECG
  capability of enhancing cellular uptake of MNPs, in words: possessed the capability of enhancing cellular uptake of MNPs; also recorded: enhanced cellular uptake of MNPs

## O=c1c(O)c(-c2ccc(O)c(O)c2)oc2cc(O)cc(O)c12 [quercetin]
[2]; 20 μM, absence of magnetic field
  cellular uptake of MNP higher than without compound: 5 times
[2]
  capability of enhancing cellular uptake of MNPs, in words: possessed the capability of enhancing cellular uptake of MNPs; also recorded: enhanced cellular uptake of MNPs
[2]; presence of magnet
  effect on uptake of MNP in the presence of magnet, in words: more significant increase in the uptake of MNP via a concentration-dependent manner
